Earlier results in patent publication US20080280973A1, “Laulimalide Analogues as Therapeutic Agents” (priority 2004, published 2008).

How the values were obtained:
[1] = system: KB, P388, A549, HT29 and MEL28 cell lines
[2] = system: multi-drug resistant cell line SKVLB-1
[3] = system: HeLa cells, NCI/ADR cells, MDA-MB-435 cell line; conditions: relative to laulimalide; cell line not specified

| Compound | anti-tumor potency range [1] | IC50 [2] [nM] | fold less potent than laulimalide [3] |
| --- | --- | --- | --- |
| C=C1C[C@H](C)C[C@@H]2CC=C[C@@H](C/C=C\C(=O)O[C@H]([C@@H](O)/C=C/[C@@H]3CC(C)=CCO3)C[C@@H]3O[C@H]3[C@@H](O)C1)O2 [Laulimalide, laulimalide] | nanomolar range | 1200 | – |
| C16-C17-des-epoxy laulimalide [des-epoxy analogue] | – | – | approximately 19 fold |
